Among the data in the OligoGym collection are remaining target (mRNA or protein) (fraction of control) values, retold here.

The target in one data set is TRADD. The note with it: ASO.
In another data set the target is AKT3. The note with it: ASO.

These antisense oligonucleotides have a phosphorothioate backbone; sugars and methylation of C are not fully specified. Bounds are passed on as bounds.
Also: test concentration or dose not given here.

In the case of GCAGGTCCAGCAGATAGG, in the data set with TRADD, the remaining target (mRNA or protein) (fraction of control) was 0.9.

GCATCCGACAGGACCACC yielded a remaining target (mRNA or protein) (fraction of control) in the data set with TRADD of 0.93. On the same count and under the same terms, in the case of GCCAGCAAAGCGTCCAGC it was at least 1. Sequence GCCAGTTTACTCCAGAGA gave a remaining target (mRNA or protein) (fraction of control) with AKT3 of 0.44. Sequence GCCCGCAGAATCGCAGCT displayed a remaining target (mRNA or protein) (fraction of control) with TRADD of 0.75. On to GCCCTGAAAGCAATGATT, for which the remaining target (mRNA or protein) (fraction of control) in the data set with AKT3 is 0.34. GCCGCACTTCAGATTTCG: the remaining target (mRNA or protein) (fraction of control) with TRADD was at least 1. Turning to GCCTCTGCAGTCTGTCTG, the remaining target (mRNA or protein) (fraction of control) with AKT3 is at least 1. In the case of GCGGCGGCGGCGGCTTCA, the remaining target (mRNA or protein) (fraction of control) with TRADD was at least 1. Same read-out and setting: in the case of GCGTAGGCATCCGACAGG it was 0.97.

The sequence GCGTCATCTGGTCCTCCA gave a remaining target (mRNA or protein) (fraction of control) with AKT3 of 0.26. As to GCGTTTATTTGGATCCTT, the remaining target (mRNA or protein) (fraction of control) with AKT3 is at least 1.

In the data set with TRADD, GCTCGTACTCGTAGGCCA showed a remaining target (mRNA or protein) (fraction of control) of at least 1. On the same count and under the same terms, in the case of GCTGCCCACCCACTCTTC it was at least 1. Sequence GCTGCTGGGCTAGGATGC showed a remaining target (mRNA or protein) (fraction of control) with TRADD of 0.84.

In the case of GGAACAGAAAAGTCTGGG, the remaining target (mRNA or protein) (fraction of control) with TRADD was determined as 0.93.

In the data set with AKT3, GGAAGTATCTTGGCCTCC yielded a remaining target (mRNA or protein) (fraction of control) of at least 1.

GGAGGAAGCGGCCACAGG: the remaining target (mRNA or protein) (fraction of control) with TRADD stood at 0.68. GGAGTATCTACATGAAAT: in the data set with AKT3, the remaining target (mRNA or protein) (fraction of control) is at least 1. GGATCTTCAGCATCTGCA gave a remaining target (mRNA or protein) (fraction of control) in the data set with TRADD of at least 1. Still for that read-out and setting: next, GGATGGGAGAAGGTGAGG: 0.55. Still for that read-out and setting: in the case of GGGAAGGCAATCAACTCT it was at least 1; in that of GGGCAGGTGGCGGCGGCG, 0.7. The sequence GGTATGCGCTGCCCACCC returned a remaining target (mRNA or protein) (fraction of control) in the data set with TRADD of at least 1. Regarding GGTGGCGGCGGCGGCGGC, the remaining target (mRNA or protein) (fraction of control) with TRADD amounted to 0.99. In turn, GGTTCCCACGCCCGCCAG came in with a remaining target (mRNA or protein) (fraction of control) with TRADD of at least 1. Regarding GGTTTAAGAGGAGGTACA, in the data set with AKT3, the remaining target (mRNA or protein) (fraction of control) was at least 1.

Turning to GTAATAGTCTGAGCTGTA, in the data set with AKT3, the remaining target (mRNA or protein) (fraction of control) is 0.88. Same read-out and setting: in the case of GTAGTCCACTGGAGACAT it was at least 1. Regarding GTCCAGCGAGGACTCCAC, the remaining target (mRNA or protein) (fraction of control) in the data set with TRADD was 0.36. Turning to GTCCTGGTTGTAGAAAGG, in the data set with AKT3, the remaining target (mRNA or protein) (fraction of control) is 0.58. Turning to GTCCTTCAGGCTCAGCGG, the remaining target (mRNA or protein) (fraction of control) in the data set with TRADD came out at 0.75. As to GTCTCAGATGTTACTTGA, the remaining target (mRNA or protein) (fraction of control) with AKT3 came out at 0.71.

In turn, GTCTGCTACAGCCTGGAT gave a remaining target (mRNA or protein) (fraction of control) in the data set with AKT3 of 0.92. GTGCGCGTAGGCATCCGA yielded a remaining target (mRNA or protein) (fraction of control) with TRADD of at least 1. The sequence GTTGTAGAGGCATCCATC yielded a remaining target (mRNA or protein) (fraction of control) in the data set with AKT3 of at least 1. For the sequence TAATTTCTTTTGCGTCAT, in the data set with AKT3, the remaining target (mRNA or protein) (fraction of control) was at least 1. Turning to TACTCCAGAGAAGAAACT, in the data set with AKT3, the remaining target (mRNA or protein) (fraction of control) amounted to 0.85. With TAGGCCAAGTGGAGTTTC, the remaining target (mRNA or protein) (fraction of control) with TRADD stood at 0.58. With TAGTATCTGTCTCAGATG, in the data set with AKT3, the remaining target (mRNA or protein) (fraction of control) came to 0.7.

Turning to TCACTACAGGCTGACCCT, in the data set with TRADD, the remaining target (mRNA or protein) (fraction of control) was determined as 0.74. Still for that read-out and setting: in the case of TCAGCCAGTTCTTCATCC it was at least 1; in that of TCAGGGTCCCGTGGATGG, at least 1.

Regarding TCATACATGACAACCCCT, the remaining target (mRNA or protein) (fraction of control) with AKT3 stood at 0.13. Same read-out and setting: next, TCATTAACTGGCATTTTG: at least 1; TCATTTCATACATGACAA: at least 1. Turning to TCCACAAACAGGTATGCG, the remaining target (mRNA or protein) (fraction of control) with TRADD is at least 1. On the same count and under the same terms, next, TCCAGGTTCTCCAAAAGC: 0.46. In the data set with AKT3, TCCCCTCTTCTGAACCCA registered a remaining target (mRNA or protein) (fraction of control) of 0.55.

In turn, TCCTCTGCCAGGCTGGTG displayed a remaining target (mRNA or protein) (fraction of control) in the data set with TRADD of at least 1. TCTATAACAGTAGTCCAC came in with a remaining target (mRNA or protein) (fraction of control) with AKT3 of at least 1. The sequence TCTATCAAAGTACCTGAG yielded a remaining target (mRNA or protein) (fraction of control) with TRADD of at least 1. For TCTCATGGTCCTGGTTGT, the remaining target (mRNA or protein) (fraction of control) with AKT3 was found to be 0.57. On to TCTGGTCCTCCACCAAGG, for which the remaining target (mRNA or protein) (fraction of control) with AKT3 amounted to 0.26.

Sequence TCTGTTGGTCCTTCAGGC showed a remaining target (mRNA or protein) (fraction of control) with TRADD of at least 1. TGCGGGTCGCTGCGGTGG gave a remaining target (mRNA or protein) (fraction of control) with TRADD of 0.69.

As to TGCGGTGGATCTTCAGCA, the remaining target (mRNA or protein) (fraction of control) with TRADD is at least 1. In the data set with TRADD, TGCTCGTACAGTCCCTCG returned a remaining target (mRNA or protein) (fraction of control) of at least 1. On the same count and under the same terms, next, TGGCTGCACCCCTGGTCT: at least 1; TGGGCTAGGATGCAACTC: 0.67.
